Assay results: paper PMC4655410, “Hepatitis B virus efficiently infects non-adherent hepatoma cells via human sodium taurocholate cotransporting polypeptide” (Scientific Reports, 2015)
“Also recorded” adds a separate entry of the source. Read-outs that look alike come from different tables or passages of the source.

Legend:
HBV [1] = experiment: Inhibition of HBV infection of non-adherent HepG2/NTCPA3 cells (intracellular HBV RNA, real-time qRT-PCR); format: cell-based, Hepatitis B virus (genotype D); conditions: for IC50: Hepatitis B virus, read-out: IC50 (anti-HBV activity); for Selectivity Index: SI from CC50 and IC50
Procedure: In the case of the non-adherent cell conditions of infection, HepG2 cells, the derived cells, or differentiated HepaRG cells were harvested using 0.25% trypsin/ethylenediaminetetraacetic acid (EDTA) solution (Sigma). After washing once with 10% FBS-DMEM, the resulting cells were suspended in the primary hepatocyte maintenance medium (PMM) consisting of William’s E medium (Sigma) supplemented with 2 mM L-glutamine, 5 μg/ml transferrin (Sigma), 10 ng/ml recombinant human epidermal growth factor (PeproTech, Rocky Hill, NJ, USA), 3 μg/ml insulin, 18 μg/ml hydrocortisone, 40 ng/ml dexamethasone (Sigma), 5 ng/ml sodium selenite (Sigma), 2% DMSO (Wako), 100 U/ml penicillin, and 100 μg/ml streptomycin (Gibco). The suspended cells (1.25 × 10^5 cells) were added to each well following the addition of virus, and were then immediately mixed well in 0.5 ml of PMM supplemented with 4% polyethylene glycol (PEG) 8000 (Sigma) and 2% FBS in each well of a 24-well collagen-coated plate. The resulting mixtures were incubated at 37 °C (0 days post-infection, dpi).
The cells infected in non-adherent or adherent phase were washed three times with phosphate-buffered saline (PBS) at 1 dpi and incubated in fresh PMM supplemented with 10% FBS. The cells were re-seeded at 2 dpi at a density of 2 × 10^4 cells/well (48-well collagen-coated plate) or 4 × 10^4 cells/well (24-well collagen-coated plate) and maintained in PMM supplemented with 10% FBS. The cells and the culture supernatants were collected at each indicated dpi in order to evaluate the amounts of viral proteins, RNA, and DNA.
Simvastatin, proscillaridin A, bufalin, convallatoxin, digitoxin, digoxin, and azelastine were purchased from Sigma. Fluvastatin was from Cayman Chemical Co. (Ann Arbor, MI, USA). The lipopeptide myr-47WT, which is an N-terminally myristoylated peptide consisting of aa 2 to 47 of the preS1 region of HBV, and myr-47N9K, in which Asn at the 9th position is substituted with Lys, were synthesized by Scrum Co. (Tokyo, Japan)[11]. […] These cells (1 × 10^6 cells/ml) were preincubated at room temperature for 1 h in PMM supplemented with a peptide at 400 nM or a compound at the indicated concentration, and were then infected with HBV at 1,000 GEq/cell in the presence of the preS1 peptide or compounds at the same concentration as in the preincubation. The resulting cells were washed three times with PBS at 1 dpi and incubated in fresh PMM supplemented with 10% FBS. Cells were then re-seeded at 2 dpi at a density of 2 × 10^4 cells/well (48-well plate) or 4 × 10^4 cells/well (24-well plate) and maintained in PMM supplemented with 10% FBS. The resulting cells and culture supernatants were collected at each indicated dpi in order to evaluate viral RNA and DNA.
(§1) Total RNA was extracted using the RNeasy Mini Kit (Qiagen, Valencia, CA, USA), followed by DNase digestion using the TURBO DNA-free kit (Ambion, Austin, TX, USA). The resulting RNA preparation was reverse-transcribed using ReverTra Ace qPCR RT Master Mix (TOYOBO, Tokyo, Japan) according to the manufacturer’s protocol. Viral DNA was extracted from culture supernatants using the QIAamp DNA Mini Kit (Qiagen) according to the manufacturer’s protocol. The amounts of viral DNA and RNA were measured by real-time quantitative PCR (qPCR) and real-time quantitative reverse transcriptase (qRT)-PCR, respectively. The amounts of intracellular HBV RNA and supernatant HBV DNA were estimated according to the method described by Yan et al.[11]. The amounts of NTCP and GAPDH mRNAs were estimated by real-time qRT-PCR using the primer pairs 5′-[…]-3′ and 5′-[…]-3′, and 5′-[…]-3′ and 5′-[…]-3′, respectively. Real-time PCR was carried out using the Fast SYBER Green Master Mix (Applied BioSystems) and StepOne Plus Real-Time PCR System (Applied BioSystems). The amounts of HBs and HBe antigens in culture supernatants were estimated by a chemiluminescent immunoassay (SRL Inc., Tokyo, Japan).
Supplementary Figure 4. […]

in vitro = conditions: human
Procedure: (§2) Cell viability was evaluated using the MTS assay system (CellTiter 96 AQueous One Solution Cell Proliferation Assay, Promega, Madison, WI, USA).
(§3) real-time qRT-PCR in cells harvested at 6 dpi (black bars). Cell viability was measured
(§4) by the MTS assay (black line with a triangle). i. […]
(§5) non-adherent phase (black columns) in the presence of 0, 10 or 30 nM proscillaridin A. […]

HepG2/NTCPA3 cells = experiment: in vitro
Procedure: as §2, §3, §4, §5

NTCP [2] = target: T1, NTCP (Homo sapiens, UniProt Q14973); experiment: Competitive binding assay: compounds versus myr-47WT binding to HepG2/NTCPA3 cells (FACS); conditions: compounds at 10 μM (proscillaridin A 10 to 100 μM)
T1 construct: expressed in transfected cells; plasmid pEF pGKpuro, puromycin selection
T1 sequence (Q14973 1-349): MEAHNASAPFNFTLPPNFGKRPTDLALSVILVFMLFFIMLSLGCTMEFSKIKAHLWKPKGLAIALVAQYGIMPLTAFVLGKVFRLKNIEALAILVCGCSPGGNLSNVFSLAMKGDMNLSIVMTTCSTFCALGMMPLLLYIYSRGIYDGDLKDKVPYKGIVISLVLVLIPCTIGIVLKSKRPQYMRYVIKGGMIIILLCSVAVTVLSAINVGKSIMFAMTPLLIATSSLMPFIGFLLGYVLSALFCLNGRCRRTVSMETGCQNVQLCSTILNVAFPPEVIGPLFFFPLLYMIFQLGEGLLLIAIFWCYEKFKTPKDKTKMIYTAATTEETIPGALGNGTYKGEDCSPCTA
Procedure: After washing twice with 2% FBS/PBS, the resulting cells were analyzed by FACS analysis.
Supplementary Figure 5. Effects of compounds on the binding ability of preS1 lipopeptide to HepG2/NTCPA3 cells. a and b. HepG2/NTCPA3 cells were pretreated with DMSO for 30 min and then were treated with myr-47N9K (a) or myr-47WT (b) in the presence of DMSO for an additional 30 min. The resulting cells were subjected to FACS analysis. c to h. HepG2/NTCPA3 cells were pretreated with the indicated concentration of each compound for 30 min and then were treated with myr-47WT in the presence of each compound for an additional 30 min. […]
fluvastatin (d), proscillaridin A (e, f and g), and azelastine (h) on preS1 binding were analyzed using FACS analysis, as described in the Materials and Methods section.
(1 picture or pasted object on this page, not shown here)

HBV [3] = experiment: Effect on HBV replication, compound added after infection (intracellular HBV RNA); format: cell-based, Hepatitis B virus (genotype D); conditions: compound added at 3 dpi, harvested at 6 dpi, HepG2/NTCPA3, HBV 1,000 GEq/cell
Procedure: The resulting cells were harvested at 6 dpi. The amount of intracellular HBV RNA was quantified by real-time qRT-PCR (black bars) and is presented as the percentage of the control value (DMSO). Cell viability was evaluated (gray bars). Data were calculated from 3 to 5 independent experiments and are expressed as means ± SD.
as §1, with “The amounts of HBs and HBe antigens in culture supernatants were estimated by a chemiluminescent immunoassay (SRL Inc., Tokyo, Japan).” left out

HBV [4] = experiment: Supernatant HBe antigen after HBV infection in the presence of compound (chemiluminescence immunoassay); format: cell-based, Hepatitis B virus (genotype D); conditions: non-adherent HepG2/NTCPA3 cells, HBV 1,000 GEq/cell, supernatant at 12 dpi
Procedure: as §1
Cell viability was measured
Culture supernatants were collected at
antigen was quantified by a chemiluminescence immunoassay. j. HepG2/NTCPA3 cells

NTCP [5] = conditions: read-out: IC50 for inhibition of NTCP-mediated taurocholic acid uptake; cited from earlier work
[6] = non-adherent HepG2/NTCPA3 cells, HBV 1,000 GEq/cell, compound from 1 h pre-infection to 1 dpi, HBV RNA at 6 dpi
[7] = non-adherent HepG2/NTCPA3 cells, compound from 1 h pre-infection to 1 dpi

SMILES | IC50 (HBV [1]; [6]) | CC50 (in vitro) | IC50 (HBV [1]; HepG2, 1 h) | Selectivity Index (HBV [1]) | Inhibition of HBV infection (in words) (HBV [1]; [7]) | further results
CN1CCCC(n2nc(Cc3ccc(Cl)cc3)c3ccccc3c2=O)CC1 (stereo not drawn) [Azelastine] | > 30000 nM | > 30000 nM |  |  |  | Inhibitory effect on HBV infection (in words) (HBV [1]; at 0.01 to 1 μM, non-adherent HepG2/NTCPA3 cells): moderate and significant inhibitory effects
C[C@]12CC[C@H](O)C[C@H]1CC[C@@H]1[C@@H]2CC[C@]2(C)[C@@H](c3ccc(=O)oc3)CC[C@]12O [Bufalin] |  | 479 ± 64.7 nM | 32.4 ± 11.3 nM | 15.8 ± 4.3 | inhibited HBV infection in a dose-dependent manner | Inhibition of HBV infection (in words) (HBV [1]; non-adherent HepG2/NTCPA3 cells, compound from 1 h pre-infection to 1 dpi, listed as bufalin): inhibited HBV infection
C[C@@H]1O[C@@H](O[C@H]2CC[C@]3(C=O)[C@H]4CC[C@]5(C)[C@@H](C6=CC(=O)OC6)CC[C@]5(O)[C@@H]4CC[C@]3(O)C2)[C@H](O)[C@H](O)[C@H]1O [Convallatoxin] |  | 156 ± 53.8 nM | 10.7 ± 3.6 nM | 15.7 ± 4.7 | inhibited HBV infection in a dose-dependent manner | 
C[C@H]1O[C@@H](O[C@H]2[C@@H](O)C[C@H](O[C@H]3[C@@H](O)C[C@H](O[C@H]4CC[C@@]5(C)[C@H](CC[C@@H]6[C@@H]5CC[C@]5(C)[C@@H](C7=CC(=O)OC7)CC[C@]65O)C4)O[C@@H]3C)O[C@@H]2C)C[C@H](O)[C@@H]1O [Digitoxin] | 93.3 ± 15.3 nM | 1730 ± 384 nM |  | 18.9 ± 3.4 | inhibited HBV infection in a dose-dependent manner | 
C[C@H]1O[C@@H](O[C@H]2[C@@H](O)C[C@H](O[C@H]3[C@@H](O)C[C@H](O[C@H]4CC[C@@]5(C)[C@H](CC[C@@H]6[C@@H]5C[C@@H](O)[C@]5(C)[C@@H](C7=CC(=O)OC7)CC[C@]65O)C4)O[C@@H]3C)O[C@@H]2C)C[C@H](O)[C@@H]1O [Digoxin] | > 100 nM | 1430 ± 277 nM |  |  | did not inhibit HBV infection | 
CC(C)n1c(/C=C/C(O)CC(O)CC(=O)O)c(-c2ccc(F)cc2)c2ccccc21 (stereo not drawn) [Fluvastatin] | > 30000 nM | > 100000 nM |  |  | did not inhibit; also recorded: not by treatment with fluvastatin | Cytotoxicity (in words) (HepG2/NTCPA3 cells): not cytotoxic
C[C@@H]1O[C@@H](O[C@@H]2C=C3CC[C@@H]4[C@H](CC[C@]5(C)[C@@H](c6ccc(=O)oc6)CC[C@]45O)[C@@]3(C)CC2)[C@H](O)[C@H](O)[C@H]1O [Proscillaridin A] | 7.2 ± 2.5 nM | 496 ± 140 nM |  | 75.5 ± 26.7 | inhibited HBV infection | Anti-HBV effect in non-adherent cells compared with adherent cells (HBV [1]; 0, 10 or 30 nM, HBV 1,000 GEq/cell, HBV RNA): similar; Effect on binding of myr-47WT (200 nM) to the cell surface of HepG2/NTCPA3 (NTCP [2]): negligible effect; Amount of HBV RNA in cells treated after infection (HBV [3]): not decreased; also recorded: did not exhibit an inhibitory effect on the viral replication; Amount of supernatant HBe antigen (HBV [4]): reduced; IC50 (NTCP [5]): 22000 nM
CCC(C)(C)C(=O)O[C@H]1C[C@@H](C)C=C2C=C[C@H](C)[C@H](CC[C@@H]3C[C@@H](O)CC(=O)O3)[C@H]21 [Simvastatin] |  | > 30000 nM | 5200 ± 600 nM |  |  | Inhibition of HBV infection (in words) (HBV [1]): inhibited HBV infection; Amount of HBV RNA in cells treated after infection (HBV [3]): not decreased; also recorded: did not exhibit an inhibitory effect on the viral replication
